Measured values as given in patent US10675331B2, “Method for achieving desired glial growth factor 2 plasma levels” (priority 2008, dated 2020).
“Also recorded” adds a separate entry of the source.

Assays:
[1] = Phase I studies; cited from earlier work
[2] = test system: advanced colorectal, NSCLC, breast, and pancreatic cancer; details: 67 patients; cited from earlier work
MAP kinase-kinase = details: many assays; read-out: IC50 values for PD 98059-induced effects; cited from earlier work
melanoma = details: cited from earlier work
[3] = in vivo; cited from earlier work
[4] = test system: Schwann cell-DRG neuron co-cultures; assay: Myelination in Schwann cell-DRG neuron co-cultures, MBP immunostaining; assay type: cell-based, rat
Protocol: Schwalm cells were prepared from sciatic nerves of newborn rats (1-2 day old) as described previously (Brookes et al., Brain Res. 1979; 165:105-118). For routine culture, Schwann cells were grown in. Dulbecco's modified Eagle's medium (DMEM) with 10% fetal bovine serum (FBS) supplemented with EGF-domain neuregulin-1 (R&D Systems) (10 ng/ml) and Forskolin (2 μM). Cells between passage 2-4 were used in all experiments described in the text.
Dissociated DRG were prepared from embryonic day 14.5 rat embryos as described previously (Eldridge et al., J Cell Biol. 1987; 105(2):1023-34) and plated onto collagen (type-1 rat tail collagen,)-coated 12 mm glass coverslips at a density of 1.25 DRG/coverslip. Five to six hours later, the cultures were flooded with neurobasal medium (Cellgro,) supplemented with B27 (GIBCO), 20% glucose, NGF (50 ng/ml) and 5-fluorodeoxyuridine (FUdR, 10 μM) and maintained in the medium for additional 2-3 days in order to remove proliferating non-neuronal cells. Cultures were then switched to fresh medium without FUdR and maintained until the DRG axons reached the periphery of the coverslips. After the axonal networks were established, Schwann cells were plated onto the neurons at a density of 100,000 cells/coverslip. […] Ten to eleven days later, myelination was assessed by immunostaining for MBP. […]

MAPK = MAPK (Erk) activation in Schwann cell-DRG co-cultures, Western blot; assay type: cell-based, rat
Protocol: (§1) Monoclonal antibody to phosphorylated Akt and polyclonal antibody to phosphorylated MAPK were purchased from Cell Signaling and were used at dilutions of 1:1000 and 1:500, respectively. Polyclonal antibodies to Akt and MAPK (Promega) were used at dilutions of 1:1000 and 1:5000, respectively.
To prepare cell lysates, 90-95% confluent rat Schwann cells on 60 mm plates or co-cultures were washed twice in phosphate-buffered saline (PBS) and then lysed in 300 μl ice-cold lysis buffer (50 mM Tris HCl pH 7.4, 1% NP-40, 0.25% Sodium Deoxycholate, 150 mM NaCl, 1 mM EGTA, 10 μg/ml Leupeptin, 2 μg/ml Aprotinin, 1 mM PMSF and 0.5 mM sodium orthovanadate). Lysates were cleared by centrifugation for 15 min at 14,000 rpm in the cold and the protein concentration of the supernatants was determined according to manufacturer specifications (Bio-Rad: Hercules, Calif.). For Western blot analysis, 50-70 μg of Schwann cell lysates were size-fractionated on 10% SDS-polyacrylamide gels and transferred onto PVDF membranes. After blocking in 5% milk, the membranes were incubated with appropriate primary antibodies prepared in blocking solution. After incubating with horseradish peroxidase conjugated secondary antibodies, the protein bands were visualized by enhanced chemiluminescence. For immunoprecipitation, 500 μg of Schwann cell lysates were incubated with 0.6 μg of primary antibody for 3 hours at 4° C., then incubated with 50 μl Sepharose A beads for 1 hour. […]
(§2) To assess the possibility that the inhibitory effect of GGF2 on myelination could be due to its ability to induce a robust MAPK activation in Schwann cells, the present inventors used a well-established in vitro myelinating culture system in which Schwann cells are co-cultured with dorsal root ganglion (DRG) neurons and induced to myelinate the associated axons by addition of ascorbic acid to the culture media. […] Twenty minutes later, cell lysates were prepared and MAPK activation was determined by Western blot analysis. […]

Akt = Akt (PI3-kinase pathway) activation in Schwann cell-DRG co-cultures, Western blot; assay type: cell-based, rat; details: U0126 with GGF2
Protocol: as §1
(§3) To prepare cell lysates, 90-95% confluent rat Schwann cells on 60 mm plates or co-cultures were washed twice in phosphate-buffered saline (PBS) and then lysed in 300 μl ice-cold lysis buffer (50 mM Tris HCl pH 7.4, 1% NP-40, 0.25% Sodium Deoxycholate, 150 mM NaCl, 1 mM EGTA, 10 μg/ml Leupeptin, 2 μg/ml Aprotinin, 1 mM PMSF and 0.5 mM sodium orthovanadate). Lysates were cleared by centrifugation for 15 min at 14,000 rpm in the cold and the protein concentration of the supernatants was determined according to manufacturer specifications (Bio-Rad: Hercules, Calif.). […]
as §2

c-Jun = c-Jun expression in co-culture lysates, Western blot; assay type: cell-based, rat; details: GGF+U0126, 11 days
Description: Control cultures were maintained without any treatment (NT). Scale bar: 100 μm. […] Error bars indicate±SE (p<0.001). […] Actin level served as a loading control.

Krox20 = details: U0126 treatment, 11 days
Protocol: Schwann cell-DRG co-cultures were pre-treated with U0126 for 30 minutes then GGF (0.6 nM) was added in the continuous presence of U0126. After 45 minutes the cell lysates were prepared and level of p-Erk and p-Akt were determined. […] Control cultures were maintained without any treatment (NT). […] Co-cultures were treated with increasing concentration of U0126 (0.5, 1 and 3 nM) under myelinating condition and 11 days later, myelination was analyzed as above. […] Co-cultures were maintained under myelinating condition in the presence of GGF or GGF+U0126 (0.5, 1 and 3 nM) for 11 days and the cell lysates were analyzed for MBP, c-Jun and Krox 20 expression. Actin level served as a loading control.
as §3

P0 = details: U0126 treated cultures
MEK-1 and MEK-2 = details: cited from earlier work
metastatic breast cancer = details: less in the intermittent dosing group than the continuous; cited from earlier work
advanced kidney cancer = details: cited from earlier work
[5] = patients who received sorafenib

Compound: O=C(NOCC1CC1)c1ccc(F)c(F)c1Nc1ccc(I)cc1Cl [CI-1040]
- side effects [1]: mild gastrointestinal and skin side effects
- responses [2]: no responses
- tolerability [2]: well tolerated

Compound: COc1cccc(-c2cc(=O)c3ccccc3o2)c1N [PD 98059]
- IC50 (MAP kinase-kinase): 1 to 20 µM

Compound: O=C(NOC[C@H](O)CO)c1ccc(F)c(F)c1Nc1ccc(I)cc1F [PD 0325901]
- response in melanoma patients (melanoma; human, in vivo): some partial response
- dose at which ocular and neurological toxicity presented (melanoma; oral): ≥ 10 mg twice-a-day

Compound: N#C/C(=C(/N)Sc1ccc(N)cc1)c1ccccc1C(F)(F)F [SL 327]
- brain penetration [3]: brain penetrant

Compound: N#CC(=C(/N)Sc1ccccc1N)/C(C#N)=C(\N)Sc1ccccc1N [U0126]
- level of myelination ([4]; U0126 in the absence of GGF2, FIG. 3E): increase in the level of myelination
- myelination in GGF2-treated co-cultures ([4]; co-treated with GGF2 and U0126, ten to eleven days): dose-dependent increase in myelination; also recorded: the inhibitory effect of GGF2 was reversed
- level of GGF2-induced MAPK activation (MAPK; U0126 1 μM, 30 minutes pretreatment, GGF2 0.6 nM): reduced to the basal level
- MAPK activation in the co-culture (MAPK; U0126 10 μM, 30 minutes pretreatment, GGF2 0.6 nM): completely abolished
- GGF2-induced Erk activation (MAPK; increasing concentrations of U0126, FIG. 3B): inhibited GGF2-induced Erk activation in a dosage-dependent manner
- effect on GGF2-induced PI3-kinase / Akt activation (Akt): no effect
- GGF-induced c-Jun expression (c-Jun): down-regulating
- Krox20 expression (Krox20): increase in Krox20 expression
- P0 expression (P0): increase in P0 expression
- higher potency than PD 98059 (MEK-1 and MEK-2): 100 fold

Compound: Cn1cncc1[C@@](N)(c1ccc(Cl)cc1)c1ccc2c(c1)c(-c1cccc(Cl)c1)cc(=O)n2C [Zarnestra, tipifarnib]
- major side effects observed (metastatic breast cancer): bone marrow suppression and neuropathy

Compound: CNC(=O)c1cc(Oc2ccc(NC(=O)Nc3ccc(Cl)c(C(F)(F)F)c3)cc2)ccn1 [sorafenib, Sorafenib]
- most common side effects (advanced kidney cancer; 768 patients): hypertension, fatigue, diarrhea, and rash
- tolerability (advanced kidney cancer; 768 patients): very well tolerated
- progression-free survival (PFS), median (advanced kidney cancer; 769 analyzed patients): 24 weeks
- 12-week progression-free rate (advanced kidney cancer; in vivo): 79%
- disease control (advanced kidney cancer; [5]): 80%
- partial response (advanced kidney cancer; [5]): 2%
- stable disease (advanced kidney cancer; [5]): 78%
